# Laboratory results published in article PMC9925730, “Controlled sequential in situ self-assembly and disassembly of a fluorogenic cisplatin prodrug for cancer theranostics” (Nature Communications, 2023).
# Several values for one entry are separate records, joined by “and”; a condition that tells them apart may be missing. Equal values may be shown once. Read-outs that look alike come from different tables or passages of the source.
# Assays:
# HeLa cells = assay: Cytotoxicity, MTT assay; format: cell-based, human; set-up: key to cell viability, mean: % viability = OD / OD of untreated control
# Protocol: (§1) HeLa cells were seeded on flat-bottomed 96-well plates (5000 cells per well) and incubated at 37 °C overnight. Varying concentrations of P-CyPt, Pt^IVNPs or CDDP (0, 1, 2, 5, 10, 20, 30, 50, 100, and 200 μM) in DMEM medium (100 μL) were added. Cells were either incubated for 48 h, or firstly incubated with these three compounds for 2 h, washed with PBS and then incubated with refreshed blank DMEM medium for another 48 h. Then, 3-(4,5)-dimethylthiahiazo (-z-y1)−3,5-di-phenytetrazoliumromide (MTT, 50 μL, 1 mg /mL in PBS) was added into each well. The cells were kept at 37 °C for 4 h, and the solution in each well was carefully removed, followed by addition of dimethyl sulfoxide (DMSO, 150 μL). The absorbance (OD) at 490 nm in each well was acquired on the microplate reader (Tcan). The absorbance of non-treated blank cells (OD control) was used as the control. The percentage of cell viability was calculated by dividing OD to the OD control. […]
# (§2) Supplementary Table 4. The IC50 (μM) value of different Pt drugs toward HeLa, HepG2 and HEK-293T cells.a
# (§3) Compounds Condition IC50 (μM) HeLa HepG2 HEK-293T […]
# (§4) a The IC50 values were measured by the MTT assay. Values denote mean ± s.d. (n = 3 independent experiments). b Cells were incubated with varying concentrations of CDDP, P-CyPt or PtIVNPs for […]
# (§5) c Cells were incubated with varying concentrations of CDDP, P-CyPt or PtIVNPs for 2 h, and the mediums were removed, washed with PBS. Blank culture mediums were added, and the cells were kept incubation for another 48 h.
# HepG2 cells = assay: Cytotoxicity, MTT assay; format: cell-based, human; set-up: key to cell viability, mean: % viability = OD / OD of untreated control
# Protocol: as §1, §2, §3, §4, §5
# HEK-293T cells = assay: Cytotoxicity, MTT assay; format: cell-based, human; set-up: key to cell viability, mean: % viability = OD / OD of untreated control
# Protocol: as §1, §2, §3, §4, §5
# [1] = test system: supercoiled pBR322 plasmid DNA; assay: Ability to break DNA double strand (agarose gel electrophoresis); format: biochemical; conditions: 100 μM, 37 °C, 16 h
# Protocol: Evaluation of the ability to break DNA double strand
# by different species of Pt compounds. (a) Agarose gel electrophoresis of supercoiled
# pBR322 plasmid DNA (10 ng/μL) after incubating with indicated conditions.
# represents the linear DNA marker ladder (500-12000 bp); Lane i: DNA; Lane ii: DNA
# + GSH (2 mM); Lane iii: DNA + CDDP (100 μM); Lane iv: DNA + CDDP (100 μM)
# + GSH (2 mM); Lane v: DNA + P-CyPt (100 μM); Lane vi: DNA + P-CyPt (100 μM)
# + GSH (2 mM), Lane vii: DNA +P-CyPt (100 μM) + ALP (500 U/L), Lane viii: DNA
# +P-CyPt (100 μM) + ALP (500 U/L) +GSH (2 mM); (b) Agarose gel electrophoresis
# of supercoiled pBR322 plasmid DNA (20 ng/μL) after incubating with varying
# concentrations of P-CyPt (0, 1, 2, 5, 10, 20, 50 and 100 μM) respectively) plus ALP
# (500 U/L), followed by incubation with GSH (2 mM) in Tris buffer at 37 °C for 16 h.
# One representative experiment out of two is shown.
# ALP = target: T1, ALP (Bos taurus, UniProt P19111); assay: Enzyme kinetics of P-CyPt towards ALP (Lineweaver-Burk); format: biochemical; conditions: ALP (20 U/L)
# T1 construct: Alkaline phosphatase from bovine; purchased Sigma-Aldrich; host or cells: bovine intestinal mucosa (tissue-derived)
# T1 sequence (P19111 20-533): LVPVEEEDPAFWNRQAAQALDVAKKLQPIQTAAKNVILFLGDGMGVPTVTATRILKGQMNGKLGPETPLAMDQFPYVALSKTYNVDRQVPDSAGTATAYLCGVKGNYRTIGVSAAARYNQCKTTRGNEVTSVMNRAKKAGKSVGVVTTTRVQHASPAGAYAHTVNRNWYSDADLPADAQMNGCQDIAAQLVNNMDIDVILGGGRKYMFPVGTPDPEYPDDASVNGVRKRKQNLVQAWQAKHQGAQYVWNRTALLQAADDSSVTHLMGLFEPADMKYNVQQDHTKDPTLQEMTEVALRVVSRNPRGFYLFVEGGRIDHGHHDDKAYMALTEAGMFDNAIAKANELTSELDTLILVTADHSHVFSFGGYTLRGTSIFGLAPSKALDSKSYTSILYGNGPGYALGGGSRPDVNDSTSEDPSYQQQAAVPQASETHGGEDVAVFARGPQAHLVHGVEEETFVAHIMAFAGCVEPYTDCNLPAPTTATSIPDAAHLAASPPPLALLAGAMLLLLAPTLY
# s.c. HeLa tumors = assay: NIR FL imaging of s.c. HeLa tumors in vivo; set-up: species or system mice; conditions: i.v. 100 μM, 200 μL
# Protocol: (100 μM, in 200 μL saline). Whole body FL images of mice prior to (pre) and at 1 h, 2 h, 4 h, 8 h post injection of P-CyPt or […] acquired on the IVIS Lumina XR III imaging system, using a 660 nm excitation filter and a 750 ± 50 nm emission filter. Each experiment was conducted in three mice. The FL intensities were quantified by the region of interest (ROI) measurement using Living Image Software (4.5.2, PerkinElmer, MA, U.S.A). […] (500 μM, in 200 μL saline). The PA images of the s.c. HeLa tumors in mice prior to (pre), and at 1, 2, 4 h post injection were captured on the Vevo 2100 LAZR system (FUJIFILM VisualSonics), with excitation at 700 and 750 nm. The PA intensities were quantified by the equipped software.
compound,measurement,setting,value
CC1(C)C(/C=C/C2=C3Oc4cc(OP(=O)(O)O)c(Cl)cc4C=C3CCC2)=[N+](CCCNC(=O)[C@@H](Cc2ccccc2)NC(=O)[C@@H](Cc2ccccc2)NC(=O)CCC(=O)[O][Pt]([NH2])([NH2])([OH])([Cl])[Cl])c2ccccc21 [P-CyPt],IC50,"HeLa cells; HeLa, 2+48 h, individual samples, read-out: IC50-2+48h",14.2 µM and 15.9 µM and 13.5 µM
same,IC50,"HeLa cells; HeLa, 2+48 h, mean of 3 samples, read-out: IC50-2+48h",14.6 µM
same,IC50,"HeLa cells; HeLa, 48 h, individual samples, read-out: IC50-48h",5.97 µM and 7.11 µM and 7.21 µM
same,"cell viability, mean","HeLa cells; Supplementary Fig. 23 (a), concentration 1 μM",92.8903
same,"cell viability, mean","HeLa cells; Supplementary Fig. 23 (a), concentration 2 μM",79.6162
same,"cell viability, mean","HeLa cells; Supplementary Fig. 23 (a), concentration 5 μM",58.6671
same,"cell viability, mean","HeLa cells; Supplementary Fig. 23 (a), concentration 10 μM",35.0547
same,"cell viability, mean","HeLa cells; Supplementary Fig. 23 (a), concentration 20 μM",22.3775
same,"cell viability, mean","HeLa cells; Supplementary Fig. 23 (a), concentration 30 μM",18.41
same,"cell viability, mean","HeLa cells; Supplementary Fig. 23 (a), concentration 50 μM",13.1166
same,"cell viability, mean","HeLa cells; Supplementary Fig. 23 (a), concentration 100 μM",9.42
same,"cell viability, mean","HeLa cells; Supplementary Fig. 23 (a), concentration 200 μM",5.73
same,IC50,"HeLa cells; Supplementary Fig. 23 (a), read-out: IC50",6.76 µM
same,"cell viability, mean","HeLa cells; Supplementary Fig. 24 (a), concentration 1 μM",94.9375
same,"cell viability, mean","HeLa cells; Supplementary Fig. 24 (a), concentration 2 μM",87.7526
same,"cell viability, mean","HeLa cells; Supplementary Fig. 24 (a), concentration 5 μM",73.6215
same,"cell viability, mean","HeLa cells; Supplementary Fig. 24 (a), concentration 10 μM",60.3727
same,"cell viability, mean","HeLa cells; Supplementary Fig. 24 (a), concentration 20 μM",43.1523
same,"cell viability, mean","HeLa cells; Supplementary Fig. 24 (a), concentration 30 μM",31.9252
same,"cell viability, mean","HeLa cells; Supplementary Fig. 24 (a), concentration 50 μM",21.7758
same,"cell viability, mean","HeLa cells; Supplementary Fig. 24 (a), concentration 100 μM",11.35
same,"cell viability, mean","HeLa cells; Supplementary Fig. 24 (a), concentration 200 μM",7.117
same,IC50,"HeLa cells; incubated 2 h, then blank medium 48 h, MTT, read-out: IC50 HeLa",14.6 ± 1.24 µM
same,IC50,"HeLa cells; incubated 48 h, MTT, read-out: IC50 HeLa",6.76 ± 0.68 µM
same,IC50,"HepG2 cells; HepG-2, 2+48 h, individual samples, read-out: IC50-2+48h",20.2 µM and 17.1 µM (2×)
same,IC50,"HepG2 cells; HepG-2, 2+48 h, mean of 3 samples, read-out: IC50-2+48h",18.1 µM
same,IC50,"HepG2 cells; HepG-2, 48 h, individual samples, read-out: IC50-48h",9.3 µM and 10.5 µM and 11 µM
same,"cell viability, mean","HepG2 cells; Supplementary Fig. 23 (b), concentration 1 μM",92.0846
same,"cell viability, mean","HepG2 cells; Supplementary Fig. 23 (b), concentration 2 μM",82.2394
same,"cell viability, mean","HepG2 cells; Supplementary Fig. 23 (b), concentration 5 μM",69.0701
same,"cell viability, mean","HepG2 cells; Supplementary Fig. 23 (b), concentration 10 μM",51.1783
same,"cell viability, mean","HepG2 cells; Supplementary Fig. 23 (b), concentration 20 μM",33.5308
same,"cell viability, mean","HepG2 cells; Supplementary Fig. 23 (b), concentration 30 μM",23.4253
same,"cell viability, mean","HepG2 cells; Supplementary Fig. 23 (b), concentration 50 μM",15.7997
same,"cell viability, mean","HepG2 cells; Supplementary Fig. 23 (b), concentration 100 μM",10.0234
same,"cell viability, mean","HepG2 cells; Supplementary Fig. 23 (b), concentration 200 μM",7.08
same,IC50,"HepG2 cells; Supplementary Fig. 23 (b), read-out: IC50",10.3 µM
same,"cell viability, mean","HepG2 cells; Supplementary Fig. 24 (b), concentration 1 μM",95.0066
same,"cell viability, mean","HepG2 cells; Supplementary Fig. 24 (b), concentration 2 μM",86.4416
same,"cell viability, mean","HepG2 cells; Supplementary Fig. 24 (b), concentration 5 μM",75.7976
same,"cell viability, mean","HepG2 cells; Supplementary Fig. 24 (b), concentration 10 μM",64.0113
same,"cell viability, mean","HepG2 cells; Supplementary Fig. 24 (b), concentration 20 μM",47.6001
same,"cell viability, mean","HepG2 cells; Supplementary Fig. 24 (b), concentration 30 μM",36.5665
same,"cell viability, mean","HepG2 cells; Supplementary Fig. 24 (b), concentration 50 μM",27.7515
same,"cell viability, mean","HepG2 cells; Supplementary Fig. 24 (b), concentration 100 μM",19.0319
same,"cell viability, mean","HepG2 cells; Supplementary Fig. 24 (b), concentration 200 μM",12.1606
same,IC50,"HepG2 cells; Supplementary Fig. 24 (b), read-out: IC50",18.1 µM
same,IC50,"HepG2 cells; incubated 2 h, then blank medium 48 h, MTT, read-out: IC50 HepG2",18.1 ± 1.78 µM
same,IC50,"HepG2 cells; incubated 48 h, MTT, read-out: IC50 HepG2",10.3 ± 0.87 µM
same,IC50,"HEK-293T cells; HEK-293T, 2+48 h, individual samples, read-out: IC50-2+48h",> 200 µM
same,IC50,"HEK-293T cells; HEK-293T, 2+48 h, mean of 3 samples, read-out: IC50-2+48h",> 200 µM
same,IC50,"HEK-293T cells; HEK-293T, 48 h, individual samples, read-out: IC50-48h",43.8 µM and 50.3 µM and 51.8 µM
same,"cell viability, mean","HEK-293T cells; Supplementary Fig. 23 (c), concentration 1 μM",98.4753
same,"cell viability, mean","HEK-293T cells; Supplementary Fig. 23 (c), concentration 2 μM",94.8818
same,"cell viability, mean","HEK-293T cells; Supplementary Fig. 23 (c), concentration 5 μM",91.0944
same,"cell viability, mean","HEK-293T cells; Supplementary Fig. 23 (c), concentration 10 μM",84.8089
same,"cell viability, mean","HEK-293T cells; Supplementary Fig. 23 (c), concentration 20 μM",73.4808
same,"cell viability, mean","HEK-293T cells; Supplementary Fig. 23 (c), concentration 30 μM",62.5624
same,"cell viability, mean","HEK-293T cells; Supplementary Fig. 23 (c), concentration 50 μM",47.5251
same,"cell viability, mean","HEK-293T cells; Supplementary Fig. 23 (c), concentration 100 μM",31.456
same,"cell viability, mean","HEK-293T cells; Supplementary Fig. 23 (c), concentration 200 μM",17.421
same,"cell viability, mean","HEK-293T cells; Supplementary Fig. 24 (c), concentration 1 μM",97.0705
same,"cell viability, mean","HEK-293T cells; Supplementary Fig. 24 (c), concentration 2 μM",99.2124
same,"cell viability, mean","HEK-293T cells; Supplementary Fig. 24 (c), concentration 5 μM",98.6059
same,"cell viability, mean","HEK-293T cells; Supplementary Fig. 24 (c), concentration 10 μM",96.2404
same,"cell viability, mean","HEK-293T cells; Supplementary Fig. 24 (c), concentration 20 μM",97.2347
same,"cell viability, mean","HEK-293T cells; Supplementary Fig. 24 (c), concentration 30 μM",96.0142
same,"cell viability, mean","HEK-293T cells; Supplementary Fig. 24 (c), concentration 50 μM",92.8073
same,"cell viability, mean","HEK-293T cells; Supplementary Fig. 24 (c), concentration 100 μM",92.5552
same,"cell viability, mean","HEK-293T cells; Supplementary Fig. 24 (c), concentration 200 μM",88.5457
same,IC50,"HEK-293T cells; Supplementary Fig. 24 (c), read-out: IC50",> 200 µM
same,IC50,"HEK-293T cells; incubated 2 h, then blank medium 48 h, MTT, read-out: IC50 HEK-293T",> 200 µM
same,IC50,"HEK-293T cells; incubated 48 h, MTT, read-out: IC50 HEK-293T",48.6 ± 4.24 µM
same,effect on supercoiled pBR322 DNA,[1]; plus GSH (2 mM),can significantly relax the supercoiled DNA
same,effect on supercoiled pBR322 DNA,[1]; without GSH,cannot bind to and break the DNA double strand
same,Vmax,ALP,0.55 µM/min
same,Km,ALP; P-CyPt 0.5-5.0 μM,14 µM
same,quantified FL intensity of HeLa tumors (Fig. 4c),s.c. HeLa tumors; 1 h,1130000000
same,quantified FL intensity of HeLa tumors (Fig. 4c),s.c. HeLa tumors; 2 h,1040000000
same,quantified FL intensity of HeLa tumors (Fig. 4c),s.c. HeLa tumors; 4 h,886000000
